Like-named read-outs stand apart in the source and are kept apart here.
Legend:
[1] = target: S1P1/EDG1 (Homo sapiens, UniProt P21453); test: S1P1 CRE-bla CHOK1 reporter assay, inhibition of Forskolin induced cAMP; assay type: cell-based
How it was run: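 Read-out is a FRET β-lactamase substrate (2 h, room temperature) after 4 h, 37 °C compound treatment under 2 μM Forskolin in stable S1P1-transfected CRE-bla CHO-K1 cells. Ten-point curves; non-linear regression gives EC50 for inhibition of Forskolin-stimulated cAMP.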

[2] = Evaluation of therapeutic index in rats: 5 or 14 day toxicology study, lung to body weight ratio; assay type: in vivo, Sprague-Dawley rat; settings: for Dose Resulting in 10% increase in lung weight: rats, oral, 5 or 14 consecutive days, interpolated from dose versus lung to body weight; for TI 5 days: 5 day toxicology study in rats
Procedure: All studies were conducted in non-fasted male and female Sprague-Dawely rats (Simonsen Laboratories). Rats were housed in an AAALAC accredited facility and the research was approved by the facilities Institutional Animal Care and Use Committee (IACUC). The animals were acclimated to the laboratory for at least 5 days prior to initiation of experiments.
(§1) The compounds listed in Table 6 were formulated as suspensions in a vehicle consisting of 0.5% carboxymethyl cellulose (Acros Organics) in purified water (pH adjusted to ˜2.2 with hydrochloric acid). The same formulation was used in the rat lymphopenia and toxicology studies described below. The concentration of each compound in suspension was verified to be within ±10% of the target concentration by HPLC-UV.
In the toxicology studies, three male and three female rats per group were assigned to dosing groups using body weight based randomization. A control group in each study received vehicle. All animals were dosed orally by gavage on 5 or 14-consecutive days at a dose volume of 5 mL/kg/day. The animals were observed daily for any manifestations of adverse effect. Twenty-four hours after the final study dose, the rats were anesthetized with isoflurane and a terminal blood sample was taken by intra-cardiac puncture for hematology and clinical chemistry evaluation (IDEXX Laboratories, Sacramento, Calif.). The lungs with trachea were collected, weighed, and then prepared for histology by perfusion with 10% neutral buffered formalin via the trachea. The internally fixed lungs were then preserved in 10% neutral buffered formalin and submitted for histological examination (IDEXX).
The dose of each compound resulting in a 10% increase in the lung to terminal body weight ratio was estimated for each compound by linear interpolation. The therapeutic index was estimated as the ratio of the dose producing 10% lung weight increase to the dose producing 50% T-Cell depletion.
(§2) The dose producing a 10% increase in lung to body weight ratio was interpolated from a plot of dose versus lung to body weight. The lymphopenia response was measured 24 hours following the final dose of a 3-5 day multiple dose regimen.

[3] = test system: peripheral T-cell counts; test: Lymphopenia in rats, 3-5 day multiple dose regimen; assay type: in vivo, rat; settings: female rats, oral, 24 h after final dose of a 3-5 day multiple dose regimen
Procedure: In rats: Female rats (Simonsen Laboratories, Gilroy Calif.) were housed in an ALAAC accredited facility and the research was approved by the facilities Institutional Animal Care and Use Committee (IACUC). The animals were acclimated to the laboratory for at least 5 days prior to initiation of experiments. Rats (n=3/compound/time-point) were dosed by oral gavage with 1 mg/kg compound formulated in a vehicle consisting of 5% DMS0/5% Tween 20 and 90% 0.1N HCL. Control rats were dosed PO with the vehicle. Whole blood was collected from isoflurane anesthetized rats via the retro-orbital sinus and terminal samples were collected by cardiac puncture into EDTA. Whole blood was incubated with mouse anti-rat CD32 (BD #550271), PE-mouse anti-rat CD45R/B220 (BD #554881), PECy5-mouse anti-rat CD4 (BD #554839), and APC-mouse anti-rat CD8a (eBioscience #17-0084) for 30 minutes on ice. Red blood cells were lysed using BD Pharm Lyse Lysing buffer (#555899) and white blood cells were analyzed with a BD FACSArray. Lymphopenia was expressed as the % of white blood cells that were CD4 or CD8 positive T cells. The overall lymphopenia response over 24 h was estimated by calculating the area under the effect curve (AUEC) using the linear trapezoidal rule.
as §1
Prior to the conduct of toxicology studies, the effect of three to five daily doses of each compound on peripheral T-cell counts of female rats was determined (see lymphopenia measurements in rats above). In these lymphopenia studies, blood samples were collected onto EDTA at intervals after the final study dose. The collection times were not identical for each study, however, all studies included a sample collected 24 hours after the final dose. The lymphopenia data was used as a biomarker to select equally pharmacologically active doses for the subsequent toxicology study. […] The high dose in the toxicology study represented a ≧20-fold increment over the low dose.
as §2

[4] = target: T1, S1P2 (Homo sapiens, UniProt O95136); test: Specificity over other S1P receptors: S1P2 CRE-bla CHOK1 reporter assay; assay type: cell-based; settings: S1P2 CRE-bla CHOK1, without Forskolin; read-out: S1P2 agonist value (EC50)
T1 construct: expressed in transfected cells; host or cells: CRE-bla CHOK1
T1 sequence (O95136 whole entry, species assumed): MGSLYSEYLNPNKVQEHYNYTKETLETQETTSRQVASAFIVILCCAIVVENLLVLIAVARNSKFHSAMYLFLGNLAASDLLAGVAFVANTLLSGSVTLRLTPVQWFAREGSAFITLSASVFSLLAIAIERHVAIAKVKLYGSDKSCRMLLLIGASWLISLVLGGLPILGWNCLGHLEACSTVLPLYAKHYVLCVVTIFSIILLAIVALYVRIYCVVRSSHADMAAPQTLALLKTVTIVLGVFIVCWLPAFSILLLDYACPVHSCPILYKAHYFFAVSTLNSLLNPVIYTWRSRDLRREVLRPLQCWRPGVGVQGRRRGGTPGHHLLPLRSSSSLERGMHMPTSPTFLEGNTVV
Procedure: (§3) Cells were seeded into 384-well black wall/clear bottom plates at 10^4 cells/well/19.5 μl assay media (DMEM-phenol free, 0.5% charcoal/dextran stripped serum, 2 mM glutamine, 0.1 mM NEAA, 1 mM Na-Pyruvate, 25 mM Hepes) and incubated for 18 hrs at 37° C. in 5% CO2. Dose response curves (10-point) were generated in 10 mM Hepes, 0.1% Pluronic F127, in the presence of Forskolin. Cells were treated with 0.5 μl compound in the presence of 2 μM Forskolin for 4 hrs at 37° C. The FRET-based β-lactamase fluorescent substrate (LiveBLAzer™-FRET B/G Loading Kit CC4-AM; Invitrogen) was prepared according to manufacturer's directions, and incubated with cells for 2 hrs at room temperature. Plates were read at Ex:410/Em:458 and Ex:410/Em:522, and the response ratio determined. Data was analyzed by non-linear regression to determine the EC50 for inhibition of Forskolin induced cAMP.
(§4) To assess compound specificity on other S1P receptors the following cell lines were used: S1P2 CRE-bla CHOK1, S1P3-Gα15 NFAT-bla HEK293T (Invitrogen), S1P4-bla TANGO U2OS (Invitrogen), S1P5-bla TANGO U2OS (Invitrogen). The same assay set up for S1P1 was used but without Forskolin. S1P4 and S1P5 assays were performed in FreeStyle Expression medium (Invitrogen). S1P5 cells were incubated for 48 hrs in prior to treatment with compound.

[5] = target: T2, S1P4 (Homo sapiens, UniProt O95977); test: Specificity over other S1P receptors: S1P4-bla TANGO U2OS assay; assay type: cell-based; settings: read-out: S1P4 agonist value (EC50)
T2 construct: Tango fusion (own knowledge: protease cleavage site plus GAL4-VP16 transcription factor at the receptor's C-terminus); host or cells: U2OS (Tango -bla)
T2 sequence (O95977 1-384): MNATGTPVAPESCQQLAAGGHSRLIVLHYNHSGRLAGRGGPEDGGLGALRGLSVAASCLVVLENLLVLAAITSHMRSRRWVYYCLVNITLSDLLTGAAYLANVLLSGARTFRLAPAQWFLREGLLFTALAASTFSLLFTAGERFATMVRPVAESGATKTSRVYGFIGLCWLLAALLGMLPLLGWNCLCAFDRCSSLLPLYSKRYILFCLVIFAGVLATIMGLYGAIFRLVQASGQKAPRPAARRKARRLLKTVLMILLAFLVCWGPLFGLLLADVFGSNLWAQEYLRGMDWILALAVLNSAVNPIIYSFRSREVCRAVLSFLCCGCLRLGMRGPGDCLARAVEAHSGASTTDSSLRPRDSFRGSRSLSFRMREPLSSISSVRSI
Procedure: as §3, §4

[6] = target: T3, S1P3 (Homo sapiens, UniProt Q99500); test: Specificity over other S1P receptors: S1P3-Gα15 NFAT-bla HEK293T reporter assay; assay type: cell-based; settings: without Forskolin, read-out: S1P3 agonist value (EC50)
T3 construct: host or cells: NFAT-bla HEK293T
T3 sequence (Q99500 whole entry): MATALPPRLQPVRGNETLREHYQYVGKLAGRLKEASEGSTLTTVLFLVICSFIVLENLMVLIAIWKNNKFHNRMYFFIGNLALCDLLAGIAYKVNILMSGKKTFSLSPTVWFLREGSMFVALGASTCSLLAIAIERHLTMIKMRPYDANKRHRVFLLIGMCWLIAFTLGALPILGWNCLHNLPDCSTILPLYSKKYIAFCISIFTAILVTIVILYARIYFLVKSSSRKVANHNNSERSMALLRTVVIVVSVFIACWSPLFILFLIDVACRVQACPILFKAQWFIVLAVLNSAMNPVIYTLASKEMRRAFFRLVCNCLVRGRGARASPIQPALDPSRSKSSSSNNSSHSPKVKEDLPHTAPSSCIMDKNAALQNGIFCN
Procedure: as §3, §4

[7] = target: T4, S1P5 (Homo sapiens, UniProt Q9H228); test: Specificity over other S1P receptors: S1P5-bla TANGO U2OS assay; assay type: cell-based; settings: read-out: S1P5 agonist value (EC50)
T4 construct: Tango fusion (own knowledge: protease cleavage site plus GAL4-VP16 transcription factor at the receptor's C-terminus); host or cells: U2OS (Tango -bla)
T4 sequence (Q9H228 whole entry, the tested form may be a part): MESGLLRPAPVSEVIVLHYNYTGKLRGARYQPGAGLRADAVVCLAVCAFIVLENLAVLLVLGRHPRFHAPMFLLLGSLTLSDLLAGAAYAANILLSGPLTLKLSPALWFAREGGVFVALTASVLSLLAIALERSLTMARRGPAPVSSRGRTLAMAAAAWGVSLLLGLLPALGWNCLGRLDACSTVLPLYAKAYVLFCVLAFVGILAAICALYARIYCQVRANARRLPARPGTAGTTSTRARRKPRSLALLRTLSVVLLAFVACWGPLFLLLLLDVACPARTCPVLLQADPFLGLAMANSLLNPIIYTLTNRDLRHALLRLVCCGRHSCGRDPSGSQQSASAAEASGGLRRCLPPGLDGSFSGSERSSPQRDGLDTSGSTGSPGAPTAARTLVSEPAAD
Procedure: as §3, §4

[8] = S1P1 CRE-bla CHOK1, with Forskolin, read-out: S1P1 agonist value (EC50)
[9] = agonist activity range, S1P1 CRE-bla CHOK1, 2 μM Forskolin, read-out: S1P1 ACTIVITY
[10] = therapeutic index: dose producing 10% lung weight increase / dose producing 50% T-cell depletion

S1P1/EDG1, sequence (P21453 whole entry): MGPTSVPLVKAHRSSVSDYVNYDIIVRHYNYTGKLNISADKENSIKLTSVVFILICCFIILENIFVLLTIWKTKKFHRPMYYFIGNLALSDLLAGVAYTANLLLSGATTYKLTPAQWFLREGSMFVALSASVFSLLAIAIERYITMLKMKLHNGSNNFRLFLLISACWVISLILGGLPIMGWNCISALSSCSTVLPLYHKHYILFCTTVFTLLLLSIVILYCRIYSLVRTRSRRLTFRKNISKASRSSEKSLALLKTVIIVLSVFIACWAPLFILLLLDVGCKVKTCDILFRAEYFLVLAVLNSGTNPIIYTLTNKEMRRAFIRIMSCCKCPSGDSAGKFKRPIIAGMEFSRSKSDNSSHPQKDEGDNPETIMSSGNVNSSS

Q: Which EC50 [1, 8] does the source give for CC(C)Oc1ccc(-c2nc(-c3cccc4c3CC[C@H]4NC(=O)N3CC(O)C3)no2)cc1C#N [Compound 234, (R)-N-(4-(5-(3 cyano-4-isopropoxyphenyl)-1,2,4-oxadiazol-3-yl)-2,3-dihydro-1H-inden-1-yl)-3-hydroxyazetidine-1-carboxamide] here?
A: 0.1 nM

Q: And the EC50 [1, 9]?
A: 0.05 to 0.5 nM

Q: What about the “Dose Resulting in 10% increase in lung weight” value (shortened to “Dose Resulting in 10% increase”) [2] of the same compound?
A: 21.3 mg/kg

Q: And the “TI 5 days” value [2, 10]?
A: 24

Q: And the “Dose Producing 50% lymphopenia” value [3]?
A: 0.90 mg/kg

Q: And the EC50 [4]?
A: > 10000 nM

Q: What about the EC50 [5] of the same compound?
A: 739 nM

Q: And the EC50 [6]?
A: > 10000 nM

Q: What about the EC50 [7] of the same compound?
A: 76.1 nM

Q: Which results are given for CC(C)Oc1ccc(-c2nc(-c3cccc4c3CC[C@@H]4NC(=O)N3CC(O)C3)no2)cc1C#N [Compound 235]?
A: EC50 [1, 8]: 0.1 nM; EC50 [1, 9]: 0.05 to 0.5 nM; Dose Resulting in 10% increase in lung weight [2]: 11.3 mg/kg; TI 5 days [2, 10]: 6; Dose Producing 50% lymphopenia [3]: 2.00 mg/kg; EC50 [4]: > 10000 nM; EC50 [5]: > 10000 nM; EC50 [6]: > 10000 nM; EC50 [7]: 39.8 nM

Q: For CC(C)Oc1ccc(-c2nc(-c3cccc4c3CC[C@H]4NS(=O)(=O)CCO)no2)cc1C#N [Compound 186, (R)-N-(4-(5-(3 cyano-4-isopropoxyphenyl)-1,2,4-oxadiazol-3-yl)-2,3-dihydro-1H-inden-1-yl)-2-hydroxyethanesulfonamide], which EC50 [1, 8] is on record?
A: 0.05 nM

Q: And the EC50 [1, 9]?
A: 0.05 to 0.5 nM

Q: What about the “Dose Resulting in 10% increase” value [2] of the same compound?
A: 1.1 mg/kg

Q: And the “TI 5 days” value [2, 10]?
A: 16

Q: And the “Dose Producing 50% lymphopenia” value [3]?
A: 0.07 mg/kg

Q: What about the EC50 [4] of the same compound?
A: 1570 nM

Q: What about the EC50 [5] of the same compound?
A: 1210 nM

Q: What about the EC50 [6] of the same compound?
A: > 10000 nM

Q: And the EC50 [7]?
A: 32.3 nM

Q: With COCCS(=O)(=O)N[C@H]1CCc2c(-c3noc(-c4ccc(OC(C)C)c(C#N)c4)n3)cccc21 [Compound 164, (S)-N-(4-(5-(3-cyano-4-isopropoxyphenyl)-1,2,4-oxadiazol-3-yl)-2,3-dihydro-1H-inden-1-yl)-2-methoxyethanesulfonamide] as the compound, how does the EC50 [1, 8] read?
A: 0.36 nM

Q: And the EC50 [1, 9]?
A: 0.05 to 0.5 nM

Q: And the “Dose Resulting in 10% increase” value [2]?
A: 5.0 mg/kg

Q: What about the “TI 5 days” value [2, 10] of the same compound?
A: 20

Q: And the “Dose Producing 50% lymphopenia” value [3]?
A: 0.25 mg/kg

Q: And the EC50 [4]?
A: > 10000 nM

Q: And the EC50 [5]?
A: > 10000 nM

Q: What about the EC50 [6] of the same compound?
A: > 10000 nM

Q: What about the EC50 [7] of the same compound?
A: 174 nM

Q: Which EC50 [1, 8] does the source give for CC(C)Oc1ccc(-c2nc(-c3cccc4c3CC[C@@H]4NS(=O)(=O)CCO)no2)cc1C#N [Compound 187, (S)-N-(4-(5-(3-cyano-4-isopropoxyphenyl)-1,2,4-oxadiazol-3-yl)-2,3-dihydro-1H-inden-1-yl)-2-hydroxyethanesulfonamide] here?
A: 0.1 nM

Q: And the EC50 [1, 9]?
A: 0.05 to 0.5 nM

Q: And the “Dose Resulting in 10% increase” value [2]?
A: 5.0 mg/kg

Q: What about the “TI 5 days” value [2, 10] of the same compound?
A: 10

Q: What about the “Dose Producing 50% lymphopenia” value [3] of the same compound?
A: 0.50 mg/kg

Q: What about the EC50 [4] of the same compound?
A: > 10000 nM

Q: What about the EC50 [5] of the same compound?
A: > 10000 nM

Q: What about the EC50 [6] of the same compound?
A: > 10000 nM

Q: And the EC50 [7]?
A: 57.1 nM

Q: What does the source list for CCOc1ccc(-c2nc(-c3cccc4c3CCC4NCCO)no2)cc1OCC (racemic) [Compound 253, (+/−)-2-((4-(5-(3,4,diethoxyphenyl)-1,2,4-oxadiazol-3-yl)-2,3-dihydro-1H-inden-1-yl)amino)ethanol, reference compound]?
A: EC50 [1, 8]: 2.88 nM; EC50 [1, 9]: 0.5 to 5 nM; EC50 [4]: > 1000 nM; EC50 [5]: 3250 nM; EC50 [6]: 4300 nM; EC50 [7]: 136 nM

Q: Which results are given for COCCS(=O)(=O)N[C@@H]1CCc2c(-c3noc(-c4ccc(OC(C)C)c(C#N)c4)n3)cccc21 [Compound 163, (R)-N-(4-(5-(3 cyano-4-isopropoxyphenyl)-1,2,4-oxadiazol-3-yl)-2,3-dihydro-1H-inden-1-yl)-2-methoxyethanesulfonamide]?
A: EC50 [1, 8]: 0.09 nM; EC50 [1, 9]: 0.05 to 0.5 nM; Dose Resulting in 10% increase in lung weight [2]: 2.1 mg/kg; TI 14 days ([2]; therapeutic index: dose producing 10% lung weight increase / dose producing 50% T-cell depletion, 14 day toxicology study in rats): 30; Dose Producing 50% lymphopenia [3]: 0.07 mg/kg; EC50 [4]: > 10000 nM; EC50 [5]: > 10000 nM; EC50 [6]: > 10000 nM; EC50 [7]: 50 nM

From patent US9388147B2 (Receptos, Inc., priority 2009, dated 2016)
